For 14 compounds, EC50 results are on record in patent US12503436B2, “Compounds and compositions for treating conditions associated with STING activity” (NOVARTIS PHARMA AG, priority 2021, dated 2025).

By EC50 is commonly meant the concentration needed to bring the measured effect to its halfway point.

Sequence of STING (Q86WV6 whole entry R71H/G230A/H232R/R293Q): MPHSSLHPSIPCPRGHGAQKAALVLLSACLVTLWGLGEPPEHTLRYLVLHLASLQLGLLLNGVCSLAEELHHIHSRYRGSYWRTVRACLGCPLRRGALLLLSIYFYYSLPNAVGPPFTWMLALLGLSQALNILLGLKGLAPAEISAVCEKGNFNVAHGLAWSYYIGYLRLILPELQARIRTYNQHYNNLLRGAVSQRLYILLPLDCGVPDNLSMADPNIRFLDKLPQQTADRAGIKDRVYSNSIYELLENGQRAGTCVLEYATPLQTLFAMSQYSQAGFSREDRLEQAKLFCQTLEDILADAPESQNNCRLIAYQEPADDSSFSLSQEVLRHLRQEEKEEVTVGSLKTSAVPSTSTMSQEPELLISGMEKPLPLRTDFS

This assay concerns the target STING (Homo sapiens, UniProt Q86WV6, G230A/H232R/R293Q/R71H). The experiment in a line: STING reporter assay in THP1-Dual KO-IFNAR2 cells (2′3′cGAMP stimulation, luciferase reporter). The class given is cell-based. The settings on record: 15 μM 2′3′cGAMP stimulation, 24 h, read-out: Pharmaron, THP1_IFNAR2 STING 24 h Luci Normalized: GeoMean EC50. A digest of the protocol: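 THP1-Dual KO-IFNAR2 cells (2×10E6 cells/mL) with compounds at 0.0017-100 μM final, stimulated with 15 μM final 2′3′cGAMP delivered by Lipofectamine 2000; 24 h at 37 °C. Luciferase in supernatant read with QUANTI-Luc Plus; EC50 derived from luminescence.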
Background: A reporter such as luciferase makes a cellular process visible.
For `N#C[C@@H]1C[C@@H]1C(=O)Nc1c[nH]c2ccc(OCCc3ccc(C(F)(F)F)cc3)cc12` [Compound 188, (1S,2R)-2-cyano-N-(5-(4-(trifluoromethyl)phenethoxy)-1H-indol-3-yl)cyclopropane-1-carboxamide], the 50% effective concentration (EC50) was 200 to 1000 nM.

For the compound `COCC(=O)Nc1c[nH]c2ccc(OCCc3ccc(C(F)(F)F)cc3)cc12` [Compound 107, 2-methoxy-N-(5-(4-(trifluoromethyl)phenethoxy)-1H-indol-3-yl)acetamide], the concentration giving a half-maximal response (EC50) was in the range of 40 to 200 nM.

`CC1(C(=O)Nc2c[nH]c3ccc(OCCc4ccc(C(F)(F)F)cc4)cc23)CC1` [Compound 251, 1-methyl-N-(5-(4-(trifluoromethyl)phenethoxy)-1H-indol-3-yl)cyclopropane-1-carboxamide]: the concentration giving a half-maximal response (EC50) is 40 to 200 nM.

For `COC1CC(C(=O)Nc2c[nH]c3ccc(O[C@H]4C[C@H](c5ccc(C(F)(F)F)cc5)C4)cc23)C1` (stereo partly drawn) [Compound 572, 3-methoxy-N-(5-(trans-3-(4-(trifluoromethyl)phenyl)cyclobutoxy)-1H-indol-3-yl)cyclobutane-1-carboxamide], the EC50 was in the range of 40 to 200 nM.

As for `O=C(Nc1c[nH]c2ccc(OCc3ccc(C(F)(F)F)cc3)cc12)C1CC1(F)Cl` (centres unmarked) [Compound 318, 2-chloro-2-fluoro-N-(5-((4-(trifluoromethyl)benzyl)oxy)-1H-indol-3-yl)cyclopropane-1-carboxamide], the EC50 lay within 200 to 1000 nM.

Consider `O=C(Nc1c[nH]c2ccc(OCCc3ccc(C(F)(F)F)cc3)cc12)C1CN(CCC(F)(F)F)C1` [Compound 299, N-(5-(4-(trifluoromethyl)phenethoxy)-1H-indol-3-yl)-1-(3,3,3-trifluoropropyl)azetidine-3-carboxamide], for which the EC50 was in the range of 200 to 1000 nM.

Turning to `CCC(=O)Nc1c[nH]c2ccc(COc3ccc(C(F)(F)F)cc3)cc12` [Compound 130, N-(5-((4-(trifluoromethyl)phenoxy)methyl)-1H-indol-3-yl)propionamide], the EC50 was in the range of 200 to 1000 nM.

Take `CC(=O)Nc1c[nH]c2ccc(OCCc3ccc(C(F)(F)F)nc3)cc12` [Compound 113, N-(5-(2-(6-(trifluoromethyl)pyridin-3-yl)ethoxy)-1H-indol-3-yl)acetamide]: the concentration for a half-maximal effect (EC50) was 1000 to 5000 nM.

As for `C[C@H]1OC[C@H]1C(=O)Nc1c[nH]c2ccc(O[C@H]3C[C@H](c4ccc(C(F)(F)F)cc4)C3)cc12` [Compound 424, (2R,3R)-2-methyl-N-(5-(trans-3-(4-(trifluoromethyl)phenyl)cyclobutoxy)-1H-indol-3-yl)oxetane-3-carboxamide], the EC50 was in the range of 200 to 1000 nM.

As to `O=C(Nc1c[nH]c2ccc(CCOc3ccc(C(F)(F)F)cc3)cc12)[C@H]1C[C@@H](O)C1` [Compound 179, (1S,3S)-3-hydroxy-N-(5-{2-[4-(trifluoromethyl)phenoxy]ethyl}-1H-indol-3-yl)cyclobutane-1-carboxamide], the half-maximal effective concentration (EC50) is 200 to 1000 nM.

Regarding `CC(=O)Nc1c[nH]c2ccc(CC(N)Cc3ccc(C(F)(F)F)cc3)cc12` (centres unmarked) [Compound 517, N-(5-(2-amino-3-(4-(trifluoromethyl)phenyl)propyl)-1H-indol-3-yl)acetamide], the EC50 lay within 5000 to 100000 nM.

Turning to `CC(=O)Nc1c[nH]c2c(F)cc(OCCC3CCN(CC(F)(F)F)CC3)cc12` [Compound 277, N-(7-fluoro-5-(2-(1-(2,2,2-trifluoroethyl)piperidin-4-yl)ethoxy)-1H-indol-3-yl)acetamide], the concentration giving a half-maximal response (EC50) was 5000 to 100000 nM.

Take `CC(=O)Nc1c[nH]c2ccc(OCC(C)(C)C3CCN(CC(F)(F)F)CC3)cc12` [Compound 108, N-(5-(2-methyl-2-(1-(2,2,2-trifluoroethyl)piperidin-4-yl)propoxy)-1H-indol-3-yl)acetamide]: the 50% effective concentration (EC50) was 5000 to 100000 nM.

On to `CC(=O)Nc1c[nH]c2ccc(OCCc3cnn4c3CCCC4)cc12` [Compound 349, N-(5-(2-(4,5,6,7-tetrahydropyrazolo[1,5-a]pyridin-3-yl)ethoxy)-1H-indol-3-yl)acetamide], for which the EC50 is 5000 to 100000 nM.
